Usually viability, T/C stands for the result in the treated group divided by that in the control group, in per cent. What is called IC50 is the midpoint of a concentration-inhibition curve.

This note sets out measurements from PubChem BioAssay AID2060507 (Molecular Pharmacology Branch, DTP, NCI, 2025).

Values joined by “and” are separate entries in the source; they are usually repeats but may differ in a detail not shown here. Equal values may be shown once.

In this experiment the test system is 519858-162-T-J1-PDC complex spheroid viability. Briefly: Anticancer human tumor 519858-162-T-J1-PDC patient-derived colon adenocarcinoma cell line growth inhibition [GQUAD]. Conditions: for viability, T/C: stronger effect = lower value; for IC50: curve of compound. The source says:
DNA G-quadruplex Stabilizer Agents in Combinations in Complex Spheroids
A high-throughput screen of multi-cell type tumor spheroids was designed to identify active combinations of DNA G-quadruplex stabilizer agents and targeted small molecules. Complex spheroids include a stromal component modeled by human endothelial cells (HUVEC) and fibroblasts modeled by human mesenchymal stem cells (MSCs). The concentration ranges selected for each drug and investigational agent were based upon clinically achievable concentrations if the clinical Cmax of the agent was known.
Compounds. The drugs and investigational agents: pidnarulex (CX-5461; NSC782164), APTO-253 (NSC789042), BRACO-19 (NSC847499), peposertib (NSC802822), ceralasertib (NSC780249), elimusertib (NSC800525), camonsertib (NSC841442), AZD-1390 (NSC803789), olaparib (NSC753686), talazoparib (NSC767125), ART-558 (NSC835418), sotorasib (NSC818433), MRTX-1133 (NSC836407), SN-38 (NSC673596), topotecan (NSC609699), etoposide (NSC141540), doxorubicin (NSC123127), gemcitabine (NSC613327), 5-fluorouracil (NSC19893), paclitaxel (NSC125973), vemurafenib (NSC761431), panobinostat (NSC761190), R-306465 (JNJ-16241199; NSC773264), adavosertib (NSC754352), TP-3654 (NSC805149), carboplatin (NSC241240), KSQ-4279 (NSC840948), and staurosporine (NSC755774) were obtained from the National Cancer Institute (NCI) Developmental Therapeutics Program Chemical Repository (34). The FDA-approved anticancer drug set is available from the NCI Developmental Therapeutics Program. […] The stock solutions were prepared in dimethyl sulfoxide (DMSO, Sigma-Aldrich, St. Louis, MO, cat. D2650) at 800-fold the tested concentration and stored at -70 degrees C prior to their use. All drugs and investigational agents were tested over a range starting from a high concentration at or near the clinical Cmax and decreasing in half-log increments. If the clinical Cmax for an agent had not been determined, the highest concentration tested was 10 microM.
2.3 Cell Culture. All cells were maintained in an incubator at 37 degrees C and 5% CO2 with 95% humidity. The PDC lines were cultured according to standard operating procedures established by the NCI PDMR. All PDCs were thawed and cultured in Matrigel-coated flasks prepared with a working solution of 1X Ham's F-12 nutrient mix, without supplementation (Invitrogen, cat. 11765054), 100 U/mL penicillin-streptomycin (Invitrogen, cat. 15140122), and 2.5% Matrigel (Corning Inc., cat. 354248) for the first three passages. The 857933-349-R-J2-PDC line was cultured in 6C/Colon 1B media, which includes advanced DMEM/F-12 (Thermo Fisher Scientific, cat. 12634028), 10 mM HEPES (Thermo Fisher Scientific, cat. 15630080), 1X GlutaMAX supplement (Thermo Fisher Scientific, cat. 35050061), 0.1 mg/mL primocin (InvivoGen, cat. ant-pm-2), 10% defined fetal bovine serum, heat inactivated (HyClone Laboratories Inc., cat. SH30070.03HI), 50% L-WRN conditioned media (ATCC, cat. CRL-3276), 1.25 mM N-Acetyl-L-cysteine (Sigma-Aldrich, cat. A9165), 10 mM nicotinamide (Sigma-Aldrich, cat. N0636), 1X B-27 supplement (Thermo Fisher Scientific, cat. 17504044), 1X N-2 supplement (Thermo Fisher Scientific, cat. 17502048), 10 microM Y-27632 dihydrochloride (Tocris Bioscience, cat. 1254), and 50 ng/mL human EGF recombinant protein (Thermo Fisher Scientific, cat. PHG0311). The 485176-168-R4-J1-PDC line was cultured in Panc media, which includes all 6C/Colon 1B media components plus 100 ng/mL human FGF-10 (Thermo Fisher Scientific, cat. 100-26), 500 nM SB-431542 (Selleckchem, cat. S1067), and gastrin (Tocris, cat. 3006).
[…]
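Also: spheroids exposed to compounds for 7 days.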

Turning to `C#Cc1c(F)ccc2cc(O)cc(-c3ncc4c(N5CC6CCC(C5)N6)nc(OCC56CCCN5CC(F)C6)nc4c3F)c12` (configuration not stated), the IC50 was more than 10 µM. Also, the viability, T/C (compound 0.0316 µM) is 93.8% and 103% and 90.4%. In addition, the viability, T/C (compound 0.1 µM) is 101% and 86% and 69.8%. The viability, T/C (compound 0.316 µM) was 110% and 97.8% and 105%. In addition, the viability, T/C (compound 1 µM) was 83.9% and 94.1% and 98.5%. The viability, T/C (compound 3.16 µM) was 88.3% and 93.2% and 89%. In addition, the viability, T/C (compound 10 µM) is 86.6% and 71.6% and 81.2%.
Take `C=CC(=O)N1CCN(c2nc(=O)n(-c3c(C)ccnc3C(C)C)c3nc(-c4c(O)cccc4F)c(F)cc23)C(C)C1` (configuration not stated): the IC50 was more than 10 µM. Moreover, where the note is “compound 0.0316 µM”, the viability, T/C is 75% and 84.1% and 70.8%. For the same compound, the viability, T/C (compound 0.1 µM) is 84.2% and 85.5% and 98.3%. Besides, under “compound 0.316 µM”, the viability, T/C was 89% and 80.9% and 104%. Moreover, the viability, T/C (compound 1 µM) was 103% and 77.7% and 99%. The viability, T/C (compound 3.16 µM) is 104% and 70.7% and 95.2%. Further, the viability, T/C (compound 10 µM) was 71.5% and 91% and 74.5%.
With `CC(=O)O[C@H]1C(=O)[C@@]2(C)[C@H]([C@H](OC(=O)c3ccccc3)[C@]3(O)C[C@H](OC(=O)[C@H](O)[C@@H](NC(=O)c4ccccc4)c4ccccc4)C(C)=C1C3(C)C)[C@]1(OC(C)=O)CO[C@@H]1C[C@@H]2O`, the IC50 is more than 10 µM. Where the note is “compound 0.0316 µM”, the viability, T/C was 83.9% and 107% and 108%. Besides, where the note is “compound 0.1 µM”, the viability, T/C was 113% and 101% and 80.3%. Also, the viability, T/C (compound 0.316 µM) is 93.4% and 80.2% and 97.1%. For the setting “compound 1 µM”, the viability, T/C was 87% and 83.3% and 85.1%. Besides, the viability, T/C (compound 3.16 µM) was 89% and 82.4% and 95.4%. For the same compound, the viability, T/C (compound 10 µM) is 101% (2×) and 86.7%.
As for `CC(C)(O)C1CCC(Nc2ccc3ncc(-c4cccc(C(F)(F)F)c4)n3n2)CC1` (configuration not stated), the IC50 was 2.46 µM and 1.84 µM. Also, the viability, T/C (compound 0.0316 µM) is 79%. Also, for the setting “compound 0.1 µM”, the viability, T/C was 119% and 115%. For the same compound, under “compound 0.316 µM”, the viability, T/C is 104% and 106%. In addition, the viability, T/C (compound 1 µM) is 80.3% and 73%. The viability, T/C (compound 3.16 µM) is 34.5% and 13.3%. Moreover, under “compound 10 µM”, the viability, T/C was 48.6% and 45.4%.
Regarding `CC(C)n1c(=O)n(C)c2cnc3cc(F)c(-c4ccc(OCCCN5CCCCC5)nc4)cc3c21`, the IC50 is more than 10 µM. Moreover, the viability, T/C (compound 0.0316 µM) is 123% and 93.8%. Further, under “compound 0.1 µM”, the viability, T/C is 107% and 102%. For the same compound, the viability, T/C (compound 0.316 µM) was 86.9% and 69.8%. In addition, where the note is “compound 1 µM”, the viability, T/C is 108% and 91.8%. The viability, T/C (compound 3.16 µM) was 73.7% and 81.7%. Also, for the setting “compound 10 µM”, the viability, T/C is 120% and 93.2%.
For `CC1COCCN1c1cc(-c2ccnn2C)c2ccnc(-c3ccn[nH]3)c2n1` (configuration not stated), the IC50 was 4.78 µM and 2.43 µM. In addition, the viability, T/C (compound 0.0316 µM) is 103% and 94%. Also, where the note is “compound 0.1 µM”, the viability, T/C was 93.7% and 82.9%. In addition, the viability, T/C (compound 0.316 µM) was 96.7% and 65%. Also, the viability, T/C (compound 1 µM) is 117% and 98.3%. Also, the viability, T/C (compound 3.16 µM) is 58.8% and 39.7%. For the same compound, the viability, T/C (compound 10 µM) is 34.3% and 26.3%.
In the case of `CC1COCCN1c1cc(C2(O)CC3CCC(C2)O3)c2cnn(-c3ccn[nH]3)c2n1` (configuration not stated), the IC50 was > 10 µM and 3.34 µM. Also, the viability, T/C (compound 0.0316 µM) was 109% and 94.9%. In addition, the viability, T/C (compound 0.1 µM) was 107% and 101%. Under “compound 0.316 µM”, the viability, T/C was 89.3% and 63%. For the setting “compound 1 µM”, the viability, T/C is 70.9% and 74%. In addition, the viability, T/C (compound 3.16 µM) was 93.6% and 47.8%. Also, the viability, T/C (compound 10 µM) is 66.3% and 38%.
For `CC1COCCN1c1cc(C2(S(C)(=N)=O)CC2)nc(-c2ccnc3[nH]ccc23)n1` (configuration not stated), the IC50 is more than 10 µM. Further, the viability, T/C (compound 0.0316 µM) is 118% and 109% and 93.2%. Further, under “compound 0.1 µM”, the viability, T/C was 80.8% and 90.4% and 89.4%. In addition, the viability, T/C (compound 0.316 µM) was 80.8% and 111% and 79%. The viability, T/C (compound 1 µM) is 115% and 98.5% and 105%. The viability, T/C (compound 3.16 µM) is 51.5% and 98.4% and 90.3%. In addition, the viability, T/C (compound 10 µM) was 61.3% and 105% and 86.2%.
For the compound `CCCS(=O)(=O)Nc1ccc(F)c(C(=O)c2c[nH]c3ncc(-c4ccc(Cl)cc4)cc23)c1F`, the IC50 is more than 10 µM. The viability, T/C (compound 0.0316 µM) is 88.3%. In addition, the viability, T/C (compound 0.1 µM) was 112%. In addition, the viability, T/C (compound 0.316 µM) was 114%. In addition, the viability, T/C (compound 1 µM) was 97.1%. Further, for the setting “compound 3.16 µM”, the viability, T/C is 125%. The viability, T/C (compound 10 µM) was 103%.
In the case of `CC[C@@]1(O)C(=O)OCc2c1cc1n(c2=O)Cc2cc3c(CN(C)C)c(O)ccc3nc2-1`, the IC50 was more than 0.316 µM. In addition, the viability, T/C (compound 0.000999 µM) was 86.1% and 63.7%. The viability, T/C (compound 0.00316 µM) was 69.6% and 123%. In addition, the viability, T/C (compound 0.00999 µM) was 93.4% and 97%. Also, where the note is “compound 0.0316 µM”, the viability, T/C is 141% and 107%. For the same compound, the viability, T/C (compound 0.0999 µM) is 90.9% and 92.7%. For the setting “compound 0.316 µM”, the viability, T/C was 75.1% and 69.3%.
For `CCc1c2c(nc3ccc(O)cc13)-c1cc3c(c(=O)n1C2)COC(=O)[C@]3(O)CC`, the IC50 was more than 0.316 µM. In addition, for the setting “compound 0.000999 µM”, the viability, T/C was 95% and 84%. The viability, T/C (compound 0.00316 µM) is 74.7% and 67.6%. Also, the viability, T/C (compound 0.00999 µM) was 43.7% and 57.5%. Moreover, the viability, T/C (compound 0.0316 µM) is 68.9% and 65.7%. The viability, T/C (compound 0.0999 µM) was 89.6% and 60.6%. Moreover, the viability, T/C (compound 0.316 µM) is 64.6% and 78.9%.
